“Also recorded” adds a separate entry of the source. Like-named read-outs stand apart in the source and are kept apart here.

Here are results for three compounds from patent US5997843A, “Radiometal complexes that localise in hypoxic tissue” (priority 1993, dated 1999).

The subject of data set [1] is xanthine oxidase. The experiment in a line: Xanthine oxidase (XOD) with hypoxanthine in PBS reduction test. The data set is classed as biochemical. The conditions noted are these: ^99m Tc complex, HPLC. How it is done:
b) Xanthine Oxidase (XOD) with Hypoxanthine in Phosphate Buffered Saline (PBS)
Xanthine oxidase (16 mg) was weighed into a P6 vial. the vial was capped, oversealed and purged with nitrogen gas. Nitrogen purged phosphate buffered saline (1 ml) was added to the vial containing the xanthine oxidase.
Hypoxanthine (4.1 mg) was weighed into a P6 vial. The vial was capped, oversealed and purged with nitrogen gas. To the hypoxanthine was added (1 ml) of the xanthine oxidase in PBS.
1 ml of the ligand solution or 1 ml of the ^99m Tc-complex preparation was then added to the reducing mixture, shaken, and aliquots were taken at 20 minute time intervals.

Data set [2] concerns isolated (Langendorff) rat hearts. In words: Isolated perfused heart (Langendorff), hypoxic vs oxic uptake/retention. The conditions noted are these: for Hypoxic/Oxic Ratio (H/O): ^99m Tc complex (or ^123 I-IAZA), 20 min infusion, 15 min washout; for Normalised Hypoxic Retention: relative to ^3 H-misonidazole activity. How it is done:
A 15-minute cold buffer washout period follows. y activity in the heart is monitored using a collimated NaI probe detector positioned over the heart.
Activity in hearts, relative to perfusate activity, is calculated for each nuclide and data evaluated for each compound for activity in hypoxic and oxic hearts (hypoxic:oxic ratio) and also relative to the 3 H-misonidazole activity (normalised retention) using Formula 1. [formula] Results

A further data set is described as follows: Biodistribution in rats. The data set is classed as in vivo, male rats. The conditions noted are these: i.v. How it is done: Biodistribution in Rats--Methods
The quantitative biodistribution was studied in male rats at 2 minutes, 1 hour and 4 hours post-injection
Rats under light anaesthesia were injected intravenously with 0.1 ml of test agent. Three rats were sacrificed (anaesthesia followed by exsanguination) at 2, 60 and 240 minutes, post-injection. The percentage of the injected dose in the excreta and organs and tissues was determined by dissection and assay for radioactivity in an automatic gamma counter.

The conditions of data set [3]: rat, cited from earlier work.
The subject of data set [4] is xanthine oxidase. The settings on record: ^99 Tc complex; cited from earlier work.
Where [5] appears, read: 2 min post-injection, ^99m Tc complex.
The mark [6] stands for this setting: 240 min post-injection (third printed value).
[7] abbreviates: second of two values, 60 or 240 min not assignable.

As to `CC(=NO)C(C)(C)NCCCCNC(C)(C)C(C)=NO` [Compound I, 4,9-diaza-3,3,10,10-tetramethyldodecan-2,11',-dione dioxime], the “Xanthine oxidase reduction test result” value with xanthine oxidase [1] was “positive”. Besides, in data set [2], the “hypoxia selectivity / hypoxic/oxic ratio / hypoxic retention (in words)” value was “significantly greater than seen for other ^99m Tc test agents and ^123 I-IAZA; also recorded: greater than that for ^99m Tc-PnAO; also recorded: at least equivalent to ^123 I-IAZA; also recorded: significantly greater hypoxic cell selectivity than the corresponding nitroimidazole conjugate”; the “Hypoxic/Oxic Ratio (H/O)” value came to 54; the “Normalised Hypoxic Retention” value is reported as 2.2. Moreover, the “normalised hypoxic retention, times greater than ^3 H misonidazole” value in data set [2] (isolated buffer perfused rat heart model) is reported as “at least 2 times”. In the data set “Biodistribution in rats” (2 min post-injection), the Bladder/Urine came out at 0.6 percent injected dose, the Blood is listed as 9.7 percent injected dose, the Gut was found to be 11.2 percent injected dose and the Kidney stood at 7.5 percent injected dose. Further, in “Biodistribution in rats” (2 min post-injection), the Liver is recorded as 10.6 percent injected dose. Further, the Muscle in the data set “Biodistribution in rats” (setting [5]) came to 35.2 percent injected dose. In the data set “Biodistribution in rats” (60 min post-injection), this compound showed a Gut of 22.3 percent injected dose and a Muscle of 12.5 percent injected dose. Besides, the Muscle in “Biodistribution in rats” (setting [6]) came out at 3.5 percent injected dose. For the same compound, the Gut in the data set “Biodistribution in rats” (240 min post-injection) came to 24.4 percent injected dose. Moreover, in the data set “Biodistribution in rats” (setting [7]), the Blood was 2.4 percent injected dose, the Kidney is 5.6 percent injected dose and the Liver came to 9.1 percent injected dose. Further, in data set [3] (30 sec pi, ^99m Tc complex), the brain uptake is on record as 0.12 % injected dose.
As for `CC(=NO)C(C)(C)NCCCNC(C)(C)C(Cn1ccnc1[N+](=O)[O-])=NO` [Compound V, 3,3,9,9-Tetramethyl-1-(2-nitro-1H-imidazo-1-yl)-4,8-diazaundecane-2,10-dione dioxime, reference compound], the “Xanthine oxidase reduction test result” value with xanthine oxidase [1] was “positive”. Moreover, in data set [2], the “Hypoxic/Oxic Ratio (H/O)” value came to 10 and the “Normalised Hypoxic Retention” value turned out to be 8.4. In the data set “Biodistribution in rats” (2 min post-injection), this compound registered a Bladder/Urine of 0.3 percent injected dose, a Blood of 7.2 percent injected dose, a Gut of 11.1 percent injected dose and a Kidney of 4.1 percent injected dose. In the data set “Biodistribution in rats” (2 min post-injection), the Liver worked out at 25.1 percent injected dose. Besides, the Muscle in “Biodistribution in rats” (setting [5]) amounted to 29.6 percent injected dose. Moreover, in “Biodistribution in rats” (60 min post-injection), the Gut was determined as 45.9 percent injected dose and the Muscle stood at 4.2 percent injected dose. The Muscle in the data set “Biodistribution in rats” (setting [6]) amounted to 2.4 percent injected dose. This compound displayed a Gut in the data set “Biodistribution in rats” (240 min post-injection) of 59.3 percent injected dose. In the data set “Biodistribution in rats” (setting [7]), this compound returned a Blood of 4.2 percent injected dose, a Kidney of 3.2 percent injected dose and a Liver of 21.5 percent injected dose.
Take `CC(=NO)C(C)(C)NCCCNC(C)(C)C(C)=NO` [Compound X, reference compound]: the “Xanthine oxidase reduction test result” value in the data set with xanthine oxidase [1] is “positive”. Further, the “Xanthine oxidase reduction test result” value with xanthine oxidase [1] (listed as PnAO) was “reduced by xanthine oxidase”. In the data set on xanthine oxidase [4], the “reduction by xanthine oxidase” value is recorded as “not reduced”. In data set [2], the “Hypoxic/Oxic Ratio (H/O)” value stood at 5.1 and the “Normalised Hypoxic Retention” value is recorded as 0.50. In “Biodistribution in rats” (2 min post-injection), the Bladder/Urine is recorded as 0.1 percent injected dose, the Blood stood at 5.0 percent injected dose, the Gut is given as 11.7 percent injected dose and the Kidney is reported as 1.8 percent injected dose. The same compound showed a Liver in “Biodistribution in rats” (2 min post-injection) of 27.9 percent injected dose. In addition, the Muscle in the data set “Biodistribution in rats” (setting [5]) came out at 34.9 percent injected dose. Moreover, in “Biodistribution in rats” (60 min post-injection), the Gut is on record as 51.5 percent injected dose and the Muscle was determined as 7.9 percent injected dose. In the data set “Biodistribution in rats” (setting [6]), this compound yielded a Muscle of 2.6 percent injected dose. In addition, the Gut in “Biodistribution in rats” (240 min post-injection) came out at 53.4 percent injected dose. In “Biodistribution in rats” (setting [7]), the Blood is 6.8 percent injected dose, the Kidney is reported as 2.1 percent injected dose and the Liver was determined as 13.1 percent injected dose. Moreover, the brain uptake in data set [3] (in vivo, 0.5 min) is 1.3 % injected dose.
